Experimental data: ChEMBL document CHEMBL1201862, “PubChem BioAssay data set” (2004)
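Five concentrations, 48 hours, 96-well plates. GI50 = concentration required for 50% inhibition of growth.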 Calls of active or inactive are those of the source. No stated cut-off is given here; in the data, active = GI50 up to about 1.1 µM and inactive = higher.

Tests used:
Experiment in all cases: DTP human tumour cell line panel, 48 h
SF-539 = test system: SF-539
HOP-92 = test system: HOP-92
786-0 = test system: 786-0
RPMI-8226 = test system: RPMI-8226
OVCAR-4 = test system: OVCAR-4
HL-60 = test system: HL-60
K562 = test system: K562
HCT-116 = test system: HCT-116
OVCAR-8 = test system: OVCAR-8
A549 = test system: A549
U-251 = test system: U-251
M14 = test system: M14
UACC-257 = test system: UACC-257
Malme-3M = test system: Malme-3M
UACC-62 = test system: UACC-62

Measured: GI50

c1cc2c(cnc3cscc32)s1
inactive: SF-539 > 100 µM | HOP-92 > 100 µM | 786-0 > 100 µM | RPMI-8226 > 100 µM | OVCAR-4 > 100 µM | HL-60 > 100 µM | K562 > 100 µM | HCT-116 > 100 µM | OVCAR-8 > 100 µM | A549 > 100 µM | U-251 > 100 µM | M14 > 100 µM | UACC-257 > 100 µM | Malme-3M > 100 µM

COc1cc(C(C)c2cc3c(cc2OCCCCOc2cc4c(cc2C(C)c2cc(OC)c(OC)c(OC)c2)OCO4)OCO3)cc(OC)c1OC (stereo not drawn)
inactive: SF-539 23.7 µM | 786-0 49.2 µM | RPMI-8226 25.5 µM | OVCAR-4 92.3 µM | HL-60 37.8 µM | K562 28.2 µM | UACC-62 21.1 µM | HCT-116 31.7 µM | OVCAR-8 34.8 µM | A549 48.4 µM | U-251 29.7 µM | M14 24.5 µM | UACC-257 84.7 µM | Malme-3M 35.6 µM

CCOC(=O)C1=C(C)N(NC(=O)c2ccccc2)C2(O)CCCC12C(=O)OCC (stereo not drawn)
inactive: SF-539 > 100 µM | 786-0 > 100 µM | RPMI-8226 > 100 µM | OVCAR-4 > 100 µM | HL-60 > 100 µM | K562 > 100 µM | UACC-62 > 100 µM | HCT-116 > 100 µM | OVCAR-8 > 100 µM | A549 > 100 µM | U-251 > 100 µM | M14 > 100 µM | UACC-257 > 100 µM | Malme-3M > 100 µM

NC(CCc1ncc(C(=O)O)s1)C(=O)O (stereo not drawn)
inactive: SF-539 > 100 µM | HOP-92 > 100 µM | 786-0 > 100 µM | RPMI-8226 > 100 µM | K562 > 100 µM | UACC-62 > 100 µM | HCT-116 > 100 µM | OVCAR-8 > 100 µM | A549 > 100 µM | U-251 > 100 µM | M14 > 100 µM | UACC-257 > 100 µM | Malme-3M > 100 µM

CCOC(=O)c1cnc2oc(-c3ccc(OC)cc3)nn2c1=O
inactive: SF-539 > 100 µM | HOP-92 29.5 µM | 786-0 > 100 µM | RPMI-8226 > 100 µM | OVCAR-4 > 100 µM | K562 > 100 µM | UACC-62 71.1 µM | HCT-116 > 100 µM | OVCAR-8 > 100 µM | A549 > 100 µM | U-251 > 100 µM | UACC-257 > 100 µM | Malme-3M > 100 µM

Cc1ccc(NS(=O)(=O)c2cc(C(C)(C)C)ccc2OCCOCCOCCOc2ccc(C(C)(C)C)cc2S(=O)(=O)Nc2ccc(C)cc2)cc1
inactive: SF-539 > 100 µM | HOP-92 > 100 µM | 786-0 > 100 µM | OVCAR-4 > 100 µM | HL-60 > 100 µM | K562 > 100 µM | UACC-62 > 100 µM | HCT-116 > 100 µM | OVCAR-8 > 100 µM | A549 > 100 µM | U-251 > 100 µM | M14 > 100 µM | UACC-257 > 100 µM | Malme-3M > 100 µM

COC1=CC23C=CC1[C@@H](c1ccccc1)C2=C(C)C(=O)N3C(=O)NC1CCCCC1 (stereo partly drawn)
inactive: SF-539 19.4 µM | HOP-92 19 µM | 786-0 15.5 µM | HL-60 21 µM | K562 28.2 µM | UACC-62 26.5 µM | HCT-116 15 µM | OVCAR-8 25.3 µM | A549 24.7 µM | U-251 16.5 µM | M14 19 µM | UACC-257 26.6 µM

CON1C(=O)C2(CCCCC2)C(=O)C12C=CC(C)CC2 (stereo not drawn)
inactive: SF-539 > 100 µM | 786-0 > 100 µM | RPMI-8226 72.3 µM | HL-60 49.5 µM | K562 85.5 µM | UACC-62 > 100 µM | OVCAR-8 > 100 µM | A549 > 100 µM | U-251 > 100 µM | M14 > 100 µM | UACC-257 69.8 µM | Malme-3M > 100 µM

CC1=NN(C(=O)Cc2ccccc2)C(=O)/C1=C\C=C\c1ccccc1
inactive: SF-539 > 100 µM | 786-0 > 100 µM | RPMI-8226 > 100 µM | OVCAR-4 > 100 µM | HL-60 > 100 µM | K562 > 100 µM | HCT-116 > 100 µM | OVCAR-8 > 100 µM | A549 > 100 µM | M14 > 100 µM | UACC-257 > 100 µM | Malme-3M > 100 µM

COc1ccc(S(=O)(=O)N/N=C/c2cc(I)cc([N+](=O)[O-])c2O)cc1OC
inactive: HOP-92 19.1 µM | 786-0 45.9 µM | RPMI-8226 24 µM | OVCAR-4 25.2 µM | HL-60 23 µM | K562 35.2 µM | UACC-62 25.8 µM | OVCAR-8 53.2 µM | A549 > 100 µM | U-251 32.7 µM | M14 36.1 µM | UACC-257 39 µM | Malme-3M 28.7 µM

NC(=O)N/N=C(\C(=O)C(=O)Nc1ccc(Cl)c(C(F)(F)F)c1)c1nc2ccc(C(=O)c3ccccc3)cc2nc1O
inactive: SF-539 > 100 µM | HOP-92 7.36 µM | 786-0 > 100 µM | RPMI-8226 > 100 µM | OVCAR-4 53.8 µM | K562 48.4 µM | UACC-62 59 µM | HCT-116 > 100 µM | OVCAR-8 88.9 µM | A549 > 100 µM | U-251 > 100 µM | M14 > 100 µM | UACC-257 72.4 µM | Malme-3M > 100 µM

O=c1c2cccnc2ncn1CCN1CCCC1
inactive: SF-539 > 100 µM | HOP-92 > 100 µM | 786-0 > 100 µM | OVCAR-4 > 100 µM | K562 > 100 µM | UACC-62 > 100 µM | HCT-116 > 100 µM | OVCAR-8 > 100 µM | A549 > 100 µM | U-251 > 100 µM | M14 > 100 µM | Malme-3M > 100 µM

O=C1C=C(Nc2ccccc2C(=O)CC(=O)C(=O)Nc2ccc(Cl)c(Cl)c2)c2ccccc2C1=O
inactive: SF-539 51.2 µM | HOP-92 75.9 µM | 786-0 35.3 µM | RPMI-8226 35.6 µM | OVCAR-4 59.4 µM | K562 12.2 µM | UACC-62 23.6 µM | HCT-116 > 10 µM | OVCAR-8 26.7 µM | A549 53.1 µM | U-251 34.7 µM | M14 32.1 µM | UACC-257 20.9 µM | Malme-3M 12.6 µM

COC(=O)C1=C(c2ccc(OC)c(OC)c2)OC(c2cc(OC)c(OC)c(OC)c2)C1 (stereo not drawn)
inactive: SF-539 30.2 µM | HOP-92 23.2 µM | 786-0 20 µM | RPMI-8226 > 100 µM | OVCAR-4 16.1 µM | K562 > 100 µM | OVCAR-8 25.9 µM | A549 > 100 µM | U-251 13.5 µM | M14 65.6 µM | UACC-257 > 100 µM | Malme-3M 42.4 µM

O=C1C2Cc3ccccc3CN2C(=O)N1CN1CCN(CN2C(=O)C3Cc4ccccc4CN3C2=O)CC1 (stereo not drawn)
inactive: SF-539 > 100 µM | HOP-92 > 100 µM | 786-0 > 100 µM | RPMI-8226 > 100 µM | HL-60 > 100 µM | K562 > 100 µM | UACC-62 > 100 µM | OVCAR-8 > 100 µM | A549 > 100 µM | U-251 > 100 µM | UACC-257 > 100 µM | Malme-3M > 100 µM

CCOC(=O)C(NC(=O)c1nc[nH]c1/N=N/N(C)C)C(C)C (stereo not drawn)
inactive: SF-539 > 100 µM | 786-0 > 100 µM | RPMI-8226 > 100 µM | OVCAR-4 > 100 µM | HL-60 > 100 µM | K562 > 100 µM | UACC-62 > 100 µM | HCT-116 > 100 µM | OVCAR-8 > 100 µM | A549 > 100 µM | U-251 40.8 µM | M14 > 100 µM | UACC-257 > 100 µM | Malme-3M > 100 µM

O=C(O)CP(=S)(S)c1ccccc1 (stereo not drawn)
inactive: SF-539 > 100 µM | HOP-92 > 100 µM | 786-0 > 100 µM | OVCAR-4 > 100 µM | HL-60 > 100 µM | K562 > 100 µM | UACC-62 > 100 µM | OVCAR-8 > 100 µM | A549 > 100 µM | U-251 > 100 µM | M14 > 100 µM | UACC-257 > 100 µM | Malme-3M > 100 µM

O=c1ccn(C2(CO)C=C(CO)C(O)C2O)c(=O)[nH]1 (stereo not drawn)
inactive: SF-539 > 25.7 µM | 786-0 > 25.7 µM | RPMI-8226 > 25.7 µM | OVCAR-4 > 25.7 µM | HL-60 > 25.7 µM | K562 > 25.7 µM | UACC-62 > 25.7 µM | HCT-116 > 25.7 µM | OVCAR-8 > 25.7 µM | A549 > 25.7 µM | U-251 > 25.7 µM | M14 > 25.7 µM | UACC-257 > 25.7 µM | Malme-3M > 25.7 µM

CCC1=NC(CO)[C@H](c2ccccc2)O1 (stereo partly drawn)
inactive: SF-539 > 100 µM | HOP-92 > 100 µM | 786-0 > 100 µM | RPMI-8226 > 100 µM | OVCAR-4 > 100 µM | K562 > 100 µM | UACC-62 > 100 µM | HCT-116 > 100 µM | OVCAR-8 > 100 µM | A549 > 100 µM | U-251 > 100 µM | UACC-257 > 100 µM | Malme-3M > 100 µM

Oc1cc(-c2c[nH]c3ccccc23)nc2cc3c(cc12)OCO3
inactive: SF-539 > 100 µM | 786-0 > 100 µM | RPMI-8226 > 100 µM | OVCAR-4 3.79 µM | HL-60 > 100 µM | K562 > 100 µM | UACC-62 66.8 µM | HCT-116 > 100 µM | OVCAR-8 > 10 µM | A549 > 100 µM | U-251 > 100 µM | M14 > 100 µM | UACC-257 > 100 µM | Malme-3M 23.6 µM
